“Also recorded” adds a separate entry of the source.
Experiments:
[1] = molecular target: T1, LID (FKBP with original binding sequence) fused to TEVcs (Homo sapiens, UniProt P62942, F37V); experiment: Yeast surface protease cleavage assay, TEVcs caged by LID; format: biochemical; details: LID degradation sequence replaced with TEVcs
T1 construct: TEVcs (ENLYFQ/G) (C); HA (C); expressed in transfected cells; host or cells: Saccharomyces cerevisiae EBY100, surface display from pCTCON2
Method: (§1) The ability of LID to cage two short peptides that have been previously shown to be controllable by the AsLOV2 domain was tested. […] The degradation sequence (RRRGN) in LID was replaced with TEVcs or SsrA, and the remainder of the binding sequence and linker was retained (FIG. 1d).
Yeast that expressed TEV protease cleavage site (CapN constructs) was treated with TEVp prior to labeling with antibody-fluorophore conjugate. Samples were incubated with 200 μL PBSB containing TEVp (expressed and purified as described above, under “Expression and purification of TEV protease”) and 5 μM shield-1 at 4° C. for 3 h with rotation. For negative control, either TEVp or shield-1, or both, was not present in PBSB. […]
(§2) After TEVp or APEX2 labeling, samples were labeled with antibody-fluorophore and/or streptavidin-fluorophore conjugates. […] All samples were resuspended in PBSB and analyzed or sorted by FACS (fluorescence-activated cell sorting, following procedures described under “FACS analysis and library selection”) within 24 h of labeling.
(§3) After labeling according to the procedures described above (under “Yeast labeling”), non-library yeast samples were analyzed with an LSRFortessa cell analyzer flow cytometer (BD Biosciences) equipped with 640 nm laser and 670/14 emission filter (for Alexa Fluor647) as well as 561 nm laser and 586/15 emission filter (for Alexa Fluor568 and PE). […]

[2] = system: CAPs-caged SsrA split transcription factor in HEK 293T cells; experiment: Shield-1 dependent gene transcription activation, Gal4 DBD, UAS-mCherry reporter; format: cell-based; parameters: Gene expression (mCherry) at different shield-1 concentrations: dose or concentration left out as unconfirmed; details: for Shield-1-induced increase in mCherry intensity: + vs - shield-1
[3] = system: CAPs-caged NLS (PKIt NES-EGFP-CapN-NLS-CapC) in HEK 293T cells; experiment: Shield-1 controlled nuclear-cytoplasmic protein distribution; format: cell-based; details: 10 μM shield-1, 18 h
Source text: The nucleocytoplasmic distribution of many eukaryotic proteins is a common determinant of their functions^30. Previously, NLS has been controlled by light through customized engineering with the AsLOV2 domain^13,14. To test if NLS is controlled by CAPs in a shield-I-dependent manner, a single-chain construct was designed in which a POI is expressed as a fusion protein with CAPs-caged NLS (FIG. 9e). […] Addition of shield-1 opens the CAPs and exposes NLS to endogenous importins, bringing the POI to the nucleus. Due to the strength of the NLS, a weak nuclear export signal, PKIt^13, was added to the construct to reduce the nuclear localization of the protein in the basal state.
HEK 293T cells were incubated for 18 h at 37° C. before imaging. […] Individual cells and the nuclei are determined by mCherry signal. Mean intensity and area are acquired with Nikon NIS-Elements analysis module. Mean intensities were subtracted by background mean intensity, and the resulting number is multiplied with the area to give total intensities. The EGFP distribution ratio was calculated by the total intensity of EGFP in the cytosol to that in the whole cell. P value was determined by unpaired two-tailed t-tests.

[4] = system: CAPs-caged TEVcs with TEV protease in HEK 293T cells; experiment: Shield-1 induced delocalization from the plasma membrane to the cytosol; format: cell-based; details: 10 μM shield-1, 18 h
Method: CAPs-caged TEVcs were anchored to the plasma membrane, followed by the POI (FIG. 9c). Under no shield-1 conditions, TEVcs are inaccessible to the co-expressed TEV protease, and the POI remains localized on the plasma membrane. With shield-1, TEVcs are uncaged and cleaved by TEV protease, thereby releasing the POI from the cell membrane.
Two extra wells without any infection are also plated for background subtraction. […] The two non-infection wells are treated with shield-1 and without shield-1, respectively. HEK 293T cells were incubated for 18 h at 37° C. before imaging.

CapN = molecular target: T2, CapN (Homo sapiens, UniProt P62942, F37V); experiment: Shield-1 reversibility characterization with CapN-caged SsrA on yeast surface; format: binding; details: 10 min shield-1, washed, incubated up to 12 h without shield-1
T2 construct: expressed in transfected cells; host or cells: Saccharomyces cerevisiae EBY100, surface display from pCTCON2
T2 sequence (P62942 with tags, fused parts or gaps F37V): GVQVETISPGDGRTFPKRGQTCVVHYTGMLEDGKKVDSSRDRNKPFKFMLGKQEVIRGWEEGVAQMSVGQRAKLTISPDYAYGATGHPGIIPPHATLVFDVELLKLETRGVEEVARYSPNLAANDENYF
Method: FIG. 4. […] Yeast cells were incubated with shield-1 for 10 min, followed by washing to remove excess shield-1. […] Values are median biotin intensity of FLAG-positive cells (Q2+Q4). […] This experiment was performed once.
Yeast that expressed SsrA (CapC constructs) was subject to APEX2 labeling^40 prior to labeling with antibody-fluorophore and streptavidin-fluorophore conjugates. Samples were incubated with 100 μL of PBSB containing SspB-APEX2 (expressed and purified as described above, under “Expression and purification of SspB-APEX2”) and 5 μM shield-1 at room temperature for 10 min with rotation. For negative controls, either SspB-APEX2 or shield-1, or both, was not present in PBSB. […]
as §2, §3

[5] = molecular target: T3, CAPs-caged SsrA split transcription factor (P2A construct u4) in rat cortical neurons UniProt P62942, F37V); experiment: Shield-1 dependent gene transcription in cultured neurons, TetR DBD, TRE-mCherry reporter; format: cell-based; details: AAV, 2 μM shield-1, 24 h
T3 construct: P2A self-cleaving peptide, separating it from the SspB-VP16 part (cleaved yes); host or cells: cultured rat cortical neurons, AAV
T3 sequence (P62942 with tags, fused parts or gaps F37V limits assumed): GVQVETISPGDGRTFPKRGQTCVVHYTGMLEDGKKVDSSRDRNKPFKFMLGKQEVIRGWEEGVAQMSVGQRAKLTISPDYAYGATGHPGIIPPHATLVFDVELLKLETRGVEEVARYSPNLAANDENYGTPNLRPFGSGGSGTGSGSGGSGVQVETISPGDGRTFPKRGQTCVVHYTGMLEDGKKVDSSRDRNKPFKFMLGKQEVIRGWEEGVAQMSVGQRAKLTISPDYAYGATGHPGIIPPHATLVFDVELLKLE
Method: To test the CAPs chemical-dependent transcriptional system in neuroscience applications, it was tested in cultured neurons. To enable homogeneous expression of DNA in stringent experiments, we generated single viral constructs that express both the DNA-binding and the transcription-activation domains via the self-cleaving peptide P2A or the internal ribosome entry site (TRES) were constructed (FIG. 12b). […] The P2A construct was then used to introduce the TetR DBD and VP16 transcription-activation domain into cultured rat cortical neurons through adeno-associated viruses (AAV), together with another AAV encoding the TRE-mCherry reporter gene. Shield-1 induced 44-fold increase in mCherry reporter gene expression compared to the no shield-1 condition (FIG. 12e and FIG. 19), showing that this system works robustly in cultured neurons.
Rat cortical neurons (Thermo Fisher Scientific, Cat #A1084001) were plated according to the user protocol. […] The viable cell density was determined by adding 10 μL of the cell suspension to 10 μl 0.4% Trypan blue, followed by cell counting using hemocytometer. […]
For neuronal infection, either concentrated AAVes or supernatant AAVes were added the neurons at DIV5-DIV10 (days in vitro). […] P values were determined by unpaired two-tailed t-tests.

mu-opioid receptor (MOR) [6] = experiment: GloSensor cAMP assay, single chain met-enkephalin-CapC-MOR; details: HEK 293T, forskolin stimulated
Source text: A cyclic adenosine monophosphate (cAMP)-dependent luciferase (GloSensor) was used to monitor the activation of mu-opioid receptor. By expressing the real-time sensor GloSensor in cells, greater luminescence is observed when the cAMP concentration is high, and lower luminescence when the cAMP concentration is low. The GloSensor assay complements the split NanoLuc assay because it measures a downstream event rather than just binding between a G protein and the receptor i.e., membrane tethered opioid peptides (M-PROBE) activation not only causes G protein recruitment, but also downstream signaling events.
To test whether the M-PROBE induces downstream signaling as a free opioid, and that function of met-enkephalin is well-preserved in the membrane-tethered geometry, the same single chain met-enkephalin-CapC-MOR was expressed on the membrane of HEK 293T cells, and co-transfected cells with the cAMP-dependent luciferase. After overnight protein expression, HEK 293T cells were stimulated with forskolin to enhance the cAMP concentration within the cells. MOR is an inhibitory G-protein coupled receptor (GPCR), and its activation leads to decreased cAMP levels. A high cAMP concentration magnifies the effect of MOR activation.

[7] = molecular target: CAPs-caged SsrA (mCherry-CapN-SsrA-CapC-CAAX) with SspB-EGFP in HEK 293T cells (Homo sapiens, UniProt P62942, F37V); experiment: Shield-1 induced protein translocation to the plasma membrane; details: 1 μM shield-1
Source text: To test use of CAPs for protein translocation, a shield-1 induced membrane localization system was designed (FIG. 9). In this design, CAPs-caged SsrA peptide is localized on the plasma membrane of HEK 293T cells by fusing to a transmembrane domain. The interacting partner of SsrA, SspB protein, is fused to the protein of interest (POI). As an example, evolved green fluorescent protein (EGFP) was used as the POI. Without shield-1, no binding between SsrA and SspB occurs, and EGFP is found throughout the cell.
Cells were incubated for 24 h at 37° C. before further processing. HEK293T cells were imaged with 60× oil-immersion objective on the Nikon inverted confocal microscope. Shield-1 dissolved in complete growth media was added gently to the top of the media to 1 μM during imaging. The intensity profile was acquired with Nikon NIS-Elements analysis module and plotted by GraphPad Prism 7.

[8] = molecular target: T4, LID (FKBP with original binding sequence) fused to SsrA (Homo sapiens, UniProt P62942, F37V); experiment: Yeast surface binding assay, SsrA caged by LID; details: LID degradation sequence replaced with SsrA
T4 construct: expressed in transfected cells; host or cells: Saccharomyces cerevisiae EBY100, surface display from pCTCON2
T4 sequence (P62942 with tags, fused parts or gaps F37V): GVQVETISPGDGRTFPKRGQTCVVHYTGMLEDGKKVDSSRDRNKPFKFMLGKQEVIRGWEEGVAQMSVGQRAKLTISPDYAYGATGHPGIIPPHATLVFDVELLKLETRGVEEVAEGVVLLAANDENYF
Method: as §1
Yeast that expressed SsrA (CapC constructs) was subject to APEX2 labeling^40 prior to labeling with antibody-fluorophore and streptavidin-fluorophore conjugates. Samples were incubated with 100 μL of PBSB containing SspB-APEX2 (expressed and purified as described above, under “Expression and purification of SspB-APEX2”) and 5 μM shield-1 at room temperature for 10 min with rotation. […]
as §2, §3

FKBP12(F36V) = FKBP12(F36V) (Homo sapiens, UniProt P62942, F37V); details: cited from earlier work
Sequence of FKBP12(F36V) (P62942 whole entry F37V, the tested form may be a part): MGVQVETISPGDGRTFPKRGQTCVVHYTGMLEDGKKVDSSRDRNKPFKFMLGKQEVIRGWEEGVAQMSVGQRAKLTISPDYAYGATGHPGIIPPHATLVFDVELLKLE

mu-opioid receptor (MOR) [9] = experiment: Split NanoLuc assay, 1-chain CapC-caged met-enkephalin fused to opioid receptor, Nb44 recruitment; format: cell-based; details: HEK293T cells, 1-chain design
Source text: To test shield-1 chemical-dependent regulation of an opioid peptide, CapC-caged met-enkephalin was fused directly onto the N-terminus of the opioid receptor as shown in the right panel of FIG. 22. In this design, the M-PROBE cell membrane tethered opioid peptides (M-PROBE) and the opioid receptors were expressed in a fixed ratio in close proximity.

T1 sequence (P62942 with tags, fused parts or gaps F37V limits assumed): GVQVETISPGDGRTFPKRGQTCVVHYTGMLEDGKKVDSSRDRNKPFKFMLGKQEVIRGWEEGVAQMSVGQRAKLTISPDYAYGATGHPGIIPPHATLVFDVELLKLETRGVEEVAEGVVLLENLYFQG

CC[C@H](C(=O)N1CCCC[C@H]1C(=O)O[C@H](CCc1ccc(OC)c(OC)c1)c1cccc(OCCN2CCOCC2)c1)c1cc(OC)c(OC)c(OC)c1 [shield-1]
Shield-1 dependence of TEVcs accessibility [1]: not observed | Shield-1-induced increase in mCherry intensity ([2]; CAPs (tandem) caged 8-amino-acid SsrA): ~25 fold | Shield-1 dependent reporter gene expression change ([2]; CAPs caged 7-amino-acid SsrA (AANDENY), construct u3): 156 fold | Shield-1-induced increase in mCherry intensity ([2]; CapN caged 8-amino-acid SsrA): ~4 fold | Gene expression (mCherry) at different shield-1 concentrations ([2]; construct u3): robust gene expression | Shield-1 incubation period sufficient to induce gene expression ([2]; construct u3, 1 μM shield-1, imaged 24 h after addition): 30 min | Gene expression induction ([2]; construct u3, overnight incubation, shield-1 50 nM or above): > 30 fold | Gene expression ([2]; construct u3, overnight incubation, shield-1 below 10 nM): did not induce gene expression | Shield-1 dependent dynamic range ([2]; maximum over caged peptides): up to 156 fold | Level of EGFP (transcription-activation domain expression) ([2]; shield-1 added to EGFP-SspB-VP16 alone): No difference was found; also recorded: did not increase the level of EGFP | Increase in mCherry expression ([2]; single viral IRES construct (u5)): 123 fold | Increase in mCherry expression ([2]; single viral P2A construct (u4)): 83 fold | EGFP nuclear-cytosolic distribution after shield-1 addition [3]: depleted from the cytosol and preferentially localized in the nucleus | EGFP localization after shield-1 addition [4]: depletes EGFP from the plasma membrane; also recorded: depleted the EGFP from the plasma membrane and significantly increased its presence in the cytoplasm | Biotin signal / CapN state after washing away shield-1 (CapN): No decrease in biotin signal; also recorded: CapN remained open | Increase in mCherry reporter gene expression vs no shield-1 [5]: 44 fold | Decrease in luminescence (mu-opioid receptor (MOR) [6]; shield-1 treated): ~50% | Time to EGFP translocation to the plasma membrane [7]: within seconds | Shield-1 dependence of SsrA accessibility [8]: not observed | Affinity for FKBP relative to wild-type FKBP (FKBP12(F36V); FKBP12(F36V) vs wild-type FKBP): over 1000 fold | Affinity for FKBP (FKBP12(F36V); FKBP12(F36V)): sub-nanomolar | Luminescence signal (RLU) (mu-opioid receptor (MOR) [9]): increase the signal

C[C@@H](NC(=O)[C@@H](N)Cc1ccc(O)cc1)C(=O)NCC(=O)N(C)[C@@H](Cc1ccccc1)C(=O)NCCO [DAMGO]
Decrease in luminescence (mu-opioid receptor (MOR) [6]; 10 micromolar): ~80%

— patent publication US20250242060A1, “CHEMOGENETIC REGULATION OF PEPTIDE FUNCTION” (priority 2022, published 2025)
